# Results reported in patent US8207346B2, “Methods of synthesizing anatabine” (Rock Creek Pharmaceuticals, Inc., priority 2010, dated 2012).
# Experiments:
# [1] = system: monoamine oxidase (MAO); details: known from Williams et al. U.S. Pat. No. 6,929,811; cited from earlier work
# [2] = Stability analysis of anatabine base with and without BHT as a preservative; assay type: physicochemical
# Method: See, for example, Tables 3 and 4 in Examples 4 and 5, respectively. Purity of the anatabine may be retained for extended periods of time. […] Further, anatabine remains stable when stored at a variety of temperatures. For example, the anatabine retains the indicated purity when stored at −20° C. to −10° C., −20° C. to 0° C., −10° C. to 0° C., 0° C. to 4° C., 2° C. to 8° C., 5° C. to 10° C., 10° C. to 15° C., 15° C. to 25° C., or 25° C. to 28° C. Stability is determined by any suitable art-recognized method. For example, anatabine stability may be monitored by high performance liquid chromatography (HPLC), liquid chromatography-mass spectroscopy (LC-MS), or nuclear magnetic resonance (NMR).
# Anatabine base stability was analyzed with and without BHT (3,5-di-tert-butyl-4-hydroxytoluene). The initial purity of BHT-free anatabine base was 94.95%. The initial purity of anatabine base with BHT was 94.87%.
structure (smiles),measurement,setting,value
"C1=CCC(c2cccnc2)NC1 (stereo not shown) [anatabine base without BHT, Anatabine]",Inhibition of monoamine oxidase (MAO),[1],inhibit monoamine oxidase (MAO)
same,Purity (%),"[2]; day 1, storage temperature 2-8° C.",94.44%
same,Purity (%),"[2]; day 1, storage temperature 25-28° C.",89.63%
same,Purity (%),"[2]; day 1, storage temperature −20° C.",93.90%
same,Purity (%),"[2]; day 2, storage temperature 2-8° C.",94.05%
same,Purity (%),"[2]; day 2, storage temperature 25-28° C.",87.59%
same,Purity (%),"[2]; day 2, storage temperature −20° C.",94.62%
same,Purity (%),"[2]; day 3, storage temperature 2-8° C.",91.65%
same,Purity (%),"[2]; day 3, storage temperature 25-28° C.",80.74%
same,Purity (%),"[2]; day 3, storage temperature −20° C.",93.87%
same,Purity (%),"[2]; day 12, storage temperature 2-8° C.",90.12%
same,Purity (%),"[2]; day 12, storage temperature 25-28° C.",79.59%
same,Purity (%),"[2]; day 12, storage temperature −20° C.",94.01%
